Data set [1] relates to replicon cells (1b-Con1). Put plainly: Replicon activity assay (replicon RNA level by real-time RT-PCR, Taqman). In kind it is cell-based. As to conditions: HCV replicon genotype 1b, read-out: EC50 (1b) Range. The procedure:
(§1) To measure cell-based anti-HCV activity of the compounds of the present invention, replicon cells (1b-Con1) are seeded at 5000 cells/well in 96-well plates one day prior to treatment with a compound of the invention. Various concentrations of a test compound of the invention in DMSO are then added to the replicon cells, with the final concentration of DMSO at 0.5% and fetal bovine serum at 10% in the assay media. Cells are harvested three days post-dosing, and the replicon RNA level is determined using real-time RT-PCR (Taqman assay) with GAPDH RNA as endogenous control. EC50 values are calculated from experiments with 10 serial twofold dilutions of the inhibitor in triplicate. To measure cytotoxicity in replicon cells of an inhibitor, an MTS assay is performed according to the manufacturer's protocol for CellTiter 96 Aqueous One Solution Cell Proliferation Assay (Promega, Cat # G3580) three days post dosing on cells treated identically as in replicon activity assays. […] Cytotoxicity in other types of cells may be measured using the same MTS protocol.

A short description of data set [2]: Cytotoxicity MTS assay (CellTiter 96 Aqueous One Solution) in replicon cells. In kind it is cell-based. As to conditions: HCV replicon cells (1b-Con1); EDU; read-out: CC50 (EDU) Range. The procedure: as §1
In general terms: Tetrazolium dyes change colour on reduction, which living cells bring about.

Read-outs that look alike come from different tables or passages of the source.

Regarding `CC(CCOP1(=O)OC[C@H]2O[C@@H](n3ccc(=O)[nH]c3=O)[C@](C)(N)[C@@H]2O1)C(=O)OC1CCCC1` (stereo partly shown) [Compound 14A], the EC50 (usually the concentration giving half of the maximal effect) in data set [1] (Hepatitis C virus) is above 10 µM. The CC50 (as a rule, the concentration that lowers cell viability or growth by half) at 3 days in data set [2] was above 50 µM.

In the case of `CC(C)OC(=O)C(C)(C)CO[P@@]1(=O)OC[C@H]2O[C@@H](n3ccc(=O)[nH]c3=O)[C@](C)(N)[C@@H]2O1` [Compound 15A], in data set [1] (Hepatitis C virus), the EC50 was above 10 µM. Besides, in data set [2], the CC50 at 3 days is above 50 µM.

For the compound `CC(C)OC(=O)C(C)(C)CO[P@]1(=O)OC[C@H]2O[C@@H](n3ccc(=O)[nH]c3=O)[C@](C)(N)[C@@H]2O1` [Compound 15B], in data set [1] (Hepatitis C virus), the EC50 was above 10 µM. Moreover, in data set [2], the CC50 at 3 days is above 50 µM.

Take `CC(C)OC(=O)C(C)(C)CO[P@@]1(=O)OC[C@H]2O[C@@H](n3ccc(=O)[nH]c3=O)[C@](C)(C#N)[C@@H]2O1` [Compound 16A]: the EC50 in data set [1] (Hepatitis C virus) is above 10 µM. The CC50 at 3 days in data set [2] was above 50 µM.

For `CC(C)OC(=O)C(C)(C)CO[P@]1(=O)OC[C@H]2O[C@@H](n3ccc(=O)[nH]c3=O)[C@](C)(C#N)[C@@H]2O1` [Compound 16B], in data set [1] (Hepatitis C virus), the EC50 was above 10 µM. In data set [2], the CC50 at 3 days is above 50 µM.

As for `CC(C)OC(=O)CC(C)(C)CO[P@@]1(=O)OC[C@H]2O[C@@H](n3ccc(=O)[nH]c3=O)[C@](C)(N)[C@@H]2O1` [Compound 17A], the EC50 in data set [1] (Hepatitis C virus) was above 10 µM. Moreover, the CC50 at 3 days in data set [2] is above 50 µM.

`CC(C)OC(=O)CC(C)(C)CO[P@]1(=O)OC[C@H]2O[C@@H](n3ccc(=O)[nH]c3=O)[C@](C)(N)[C@@H]2O1` [Compound 17B]: in data set [1] (Hepatitis C virus), the EC50 is above 10 µM. The half-maximal cytotoxic concentration (CC50) at 3 days in data set [2] is above 50 µM.

Turning to `CCC(CCO[P@@]1(=O)OC[C@H]2O[C@@H](n3ccc(=O)[nH]c3=O)[C@](C)(N)[C@@H]2O1)C(=O)OC1CCCC1` (stereo partly shown) [Compound 25A], the EC50 in data set [1] (Hepatitis C virus) is above 10 µM.

On to `CCC(CCO[P@]1(=O)OC[C@H]2O[C@@H](n3ccc(=O)[nH]c3=O)[C@](C)(N)[C@@H]2O1)C(=O)OC1CCCC1` (stereo partly shown) [Compound 25B], for which, in data set [1] (Hepatitis C virus), the EC50 is above 10 µM.

For the compound `CC(=O)O[C@H](CO[P@@]1(=O)OC[C@H]2O[C@@H](n3ccc(=O)[nH]c3=O)[C@](C)(N)[C@@H]2O1)CC(=O)OC(C)C` [Compound 52A], the EC50 in data set [1] (Hepatitis C virus) was above 10 µM.

For the compound `CC(=O)O[C@H](CO[P@]1(=O)OC[C@H]2O[C@@H](n3ccc(=O)[nH]c3=O)[C@](C)(N)[C@@H]2O1)CC(=O)OC(C)C` [Compound 52B], the EC50 in data set [1] (Hepatitis C virus) was above 10 µM.

On to `CC(=O)O[C@H](C(=O)OC(C)C)[C@@H](CO[P@@]1(=O)OC[C@H]2O[C@@H](n3ccc(=O)[nH]c3=O)[C@](C)(N)[C@@H]2O1)OC(C)=O` [Compound 53A], for which the EC50 in data set [1] (Hepatitis C virus) is above 10 µM.

Consider `C#C[C@]1(C)[C@@H]2O[P@@](=O)(OC[C@H](CC(=O)OC(C)C)OC(C)=O)OC[C@H]2O[C@H]1n1ccc(=O)[nH]c1=O` [Compound 55A], for which, in data set [1] (Hepatitis C virus), the EC50 was above 10 µM.

Turning to `C#C[C@]1(C)[C@@H]2O[P@](=O)(OC[C@H](CC(=O)OC(C)C)OC(C)=O)OC[C@H]2O[C@H]1n1ccc(=O)[nH]c1=O` [Compound 55B], the EC50 in data set [1] (Hepatitis C virus) was above 10 µM.

On to `CC(C)OC(=O)[C@@H](C)CCO[P@@]1(=O)OC[C@H]2O[C@@H](n3ccc4c(N)ncnc43)[C@](C)(Cl)[C@@H]2O1` [Compound 80A], for which the EC50 in data set [1] (Hepatitis C virus) is above 10 µM.

As to `CC(C)OC(=O)[C@@H](C)CCO[P@]1(=O)OC[C@H]2O[C@@H](n3ccc4c(N)ncnc43)[C@](C)(Cl)[C@@H]2O1` [Compound 80B], the EC50 in data set [1] (Hepatitis C virus) lay within 1 to 10 µM.

On to `CC(C)OC(=O)[C@H](C)CCO[P@@]1(=O)OC[C@H]2O[C@@H](n3cc(F)c4c(N)ncnc43)[C@](C)(Cl)[C@@H]2O1` [Compound 81A], for which the 50% effective concentration (EC50) in data set [1] (Hepatitis C virus) is above 10 µM.

In the case of `CC(C)OC(=O)[C@H](C)CCO[P@]1(=O)OC[C@H]2O[C@@H](n3cc(F)c4c(N)ncnc43)[C@](C)(Cl)[C@@H]2O1` [Compound 81B], the EC50 in data set [1] (Hepatitis C virus) is above 10 µM.

For the compound `CC(C)OC(=O)[C@@H](C)CCO[P@@]1(=O)OC[C@H]2O[C@@H](n3cc(F)c4c(N)ncnc43)[C@](C)(Cl)[C@@H]2O1` [Compound 82A], the EC50 in data set [1] (Hepatitis C virus) is above 10 µM.

Regarding `CC(C)OC(=O)[C@H](C)CCO[P@]1(=O)OC[C@H]2O[C@@H](n3cc(F)c4c(N)ncnc43)[C@](C)(Cl)[C@@H]2O1` [Compound 82B], in data set [1], the EC50 is above 10 µM.

With `CC(C)OC(=O)[C@H](C)CCOP1(=O)OC[C@@]2(F)O[C@@H](n3ccc(=O)[nH]c3=O)[C@](C)(F)[C@@H]2O1` (stereo partly shown) [Compound 87A], in data set [1] (Hepatitis C virus), the half-maximal effective concentration (EC50) was at most 0.25 µM.
